Measurements taken from patent US10492518B2, “Blood lipid-lowering composition, method for preparing the same and use thereof” (INFINITUS (CHINA) COMPANY LTD., priority 2018, dated 2019).

Tested on: mixed hyperlipidemia model in SD rat
Test: Test of the blood lipid-lowering efficacy: serum TC, TG, HDL-C, LDL-C and apo-A1 after 30 days oral administration
Type: in vivo
Settings: positive control, atorvastatin calcium 0.83 mg/Kg oral, high fat diet SD rats
Experimental: Experiment object: compositions of examples 1 to 4, single component group (500 mg of echium seed oil), and two positive control groups: fish oil group (180 mg of EPA and 120 mg of DHA in each 1000 mg oil fish, purchased from Amway), and atorvastatin calcium group (each tablet was 20 mg containing 10 mg of active ingredient atorvastatin calcium, purchased from Pfizer Pharmaceutical Co., Ltd.).
Reference was made to the test method of adjunctive blood lipid-lowering function in the Technical specification for health care food inspection and evaluation. The SPF grade male SD rats were chosen as the experimental animals. After the adaptation period, an animal model of mixed hyperlipidemia was established, and the rats were randomly divided into groups according to the TC level.
There were three dosage groups, two positive control groups, one blank control group and one model control group. In low-dosage group, the dosage of the test sample was equal to 5 times ([…]) of the recommended amount for human; for the other two dosage groups, the dosages were respectively equal to 10 times (333.33 mg/kg) and 25 times (833.33 mg/kg) of the recommended amount for human. The dosage of the positive control group was equal to 5 times of the recommended amount for human (fish oil: 150 mg/Kg; atorvastatin calcium 0.83 mg/Kg). The blank control group and the model control group were administered with distilled water of the same volume by intragastric gavage. Each of the groups was weighed regularly. 30 days after the administration, blood samples were collected from the rats without fasting, and the serums were separated. TC (total cholesterol), TG (total triglyceride), (high-density lipoprotein cholesterol) and apo-A1 (apolipoprotein A1) were tested. The methods were illustrated in details hereinafter.
Adaptation period: in a barrier system the rats were fed for regular feed and observed for 5 to 7 days.
The rats were randomly divided into 22 groups according to the weight, 6 rats per group. One group of rats was fed with regular feed as the blank control group. The other 21 groups were fed with high fat diet as the model control group. All rats were weighed once a week.
20 days after the model control groups were fed with high fat diet, blood samples (1 to 1.5 mL of blood from the tail vein) were collected from the rats of the blank control group and the model control group without fasting. After the blood collection, the serum were quickly separated and transferred to a new centrifuge tube, and then cryopreserved at −20° C. for test. ELISA test kits for cholesterol, triglyceride, HDL-cholesterol and LDL-cholesterol were used to test the levels of TC, TG, LDL-C and HDL-C in the rat serum. […]

For `CC(C)c1c(C(=O)Nc2ccccc2)c(-c2ccccc2)c(-c2ccc(F)cc2)n1CC[C@@H](O)C[C@@H](O)CC(=O)[O-].CC(C)c1c(C(=O)Nc2ccccc2)c(-c2ccccc2)c(-c2ccc(F)cc2)n1CC[C@@H](O)C[C@@H](O)CC(=O)[O-].[Ca+2]` [Atorvastatin Calcium, atorvastatin calcium], the “Serum HDL-C, Mean Value ± Standard Deviation” value was 919.74 ± 150.63 µmol/L, the “Serum LDL-C, Mean Value ± Standard Deviation” value was 853.24 ± 236.19 µmol/L and the “Serum total cholesterol (TC), Mean Value ± Standard Deviation” value was 1117.14 ± 171.07 µmol/L. The “Serum triglyceride (TG), Mean Value ± Standard Deviation” value was 189.71 ± 45.83 µmol/L.
